Experimental data: patent US20250152545A1, “NOVEL ANTIVIRAL COMPOSITIONS COMPRISING OLEIC ACID” (SUBINTRO LIMITED, priority 2021, published 2025)

Experiments:
Format in all cases: cell-based
[1] = tested on: H1N1 (strain A/Switzerland/7717739/2013)
[2] = tested on: SARS-COV-2 (strain BetaCoV/France/IDF0571/2020); assay: SARS-COV-2 viral load in apical wash of infected ALI cultured human nasal epithelium (RT-PCR); details: apical treatment; apilimod (as mesylate) 2 mg/ml 50 uL and/or surfactants 0.15% w/w polysorbate 80 + 0.2% w/w oleic acid; apical wash 48 hrs post inoculation; MOI 0.1
Description: Primary human nasal, trachea, and bronchial epithelial cells can be cultured and differentiated at an air-liquid interface (ALI), forming a pseudostratified mucociliary airway epithelium that is composed of ciliated cells, goblet cells, club cells, and basal cells with an arrangement closely reflective of an in vivo cellular organization. This in vitro model of human airway epithelium (HAE) cultured at an ALI (HAE-ALI) closely recapitulates many important characteristics of respiratory virus-host cell interactions seen in the infected upper and lower airways in vivo and has been used to study many human respiratory viruses, including SARS-COV-2. […]
Virus load was quantified by RT-PCR as reported by Pizzorno et al. (Cell Rep Med. 1 (4): 100059, 2020). […] Viral RNA will be quantified by RT-qPCR (Express One-Step Superscript™ qRT-PCR kit, Invitrogen). SARS-COV-2-specific primer and probes used for viral genome quantification as follows: Target: ORF1b-nsp14 Forward primer (HKU-ORF1b-nsp14F) 5′-[…]-3′ Reverse primer (HKU-ORF1b-nsp14R) 5′-[…]-3′ Probe (HKU-ORF1b-nsp141P) 5′-FAM-[…]-TAMRA-3′. Ct data were determined and relative changes in gene expression were calculated using the […] and shown as the fold reduction of genome copy number (ORF1b-nsp14 gene of SARS-COV-2) relative to the mean of vehicle treated infected control.

[3] = tested on: SARS-COV-2 infected ALI cultured human nasal epithelium; details: apical treatment, apilimod (as mesylate) 2 mg/ml 50 uL; 48 hrs post virus inoculation

Row | SMILES | reduction of viral load (assay control) ([1]; 10 µM in a basal chamber, Day 0, 24 hrs post inoculation) | reduction of viral load (genome copy number) compared with virus infection control ([1]; apical treatment, oseltamivir carboxylate 1 μM and/or surfactants 0.15% polysorbate 80 + 0.2% oleic acid, apical wash 24 hrs post inoculation) | reduction of viral load (genome copy number, ORF1b-nsp14) compared with virus infection control [2] | inhibition of virus-induced reduction in TEER [3]
1 | CCC(CC)O[C@@H]1C=C(C(=O)O)C[C@H](N)[C@H]1NC(C)=O [oseltamivir carboxylate] | 1.7 log | 1.0 log |  | 
2 | Cc1cccc(/C=N/Nc2cc(N3CCOCC3)nc(OCCc3ccccn3)n2)c1 [apilimod] |  |  | 0.1 log | 48%
